In patent US9511017B2, “Method and composition for use in preparation of a patient for surgery” (priority 2005, dated 2016):

How the values were obtained:
[1] = Transcutaneous penetration / comparative release of active ingredient in horizontal glass Franz-type diffusion cells; assay type: in vitro ADME; details: 2 hrs; 0.5 g sample; mean of duplicates
Source text: The transcutaneous penetration and comparative release of active ingredient were compared using a horizontal glass Franz-type diffusion cells such as are described in R. Danids, (Skin Care Forum, Issue 37, August 2004, Cognis); S. Jung, (The University of California Irvine Undergraduate Research Journal, p. 25-26, Vol V, 2002, University of California Irvine); Guideline for Industry Non-sterile Semisolid Dosage Forms (SUPAC-SS CMC7), May 1997, U.S. Department of Health and Human Services FDA CDER. A standard cellophane dialysis membrane of MW cut off 6-8000 was used for the diffusion studies. The Franz cell receiving solution was composed of 50% v/v methanol/water. Cellophane membranes were mounted horizontally in the Franz cells. 0.5 g of sample were used for each test. The cell receptor was continuously stirred magnetically and maintained at 35+/−2° C. At the designated time 150 microliters aliquots were sampled from the receiving vessel of the Franz cells. 20 microliters were injected into HLPC. […]
0.5 g samples of compositions according to examples 2, 3 and 4 were compared over periods of 2, 4 and 7 hours with a prior art composition comprising 5% chlorhexidine in 62% ethyl alcohol. […] Column C, D, and E give the results for the actives in the respective formulations, both in mg and as a % of the sample quantity tested.

[2] = test system: Pseudomonas aeruginosa ATTC 15442; details: triclosan alone, known; cited from earlier work

SMILES	chlorhexidine penetrated, % of the sample quantity tested [1]	triclosan penetrated, % of the sample quantity tested [1]	effectiveness against Pseudomonas aeruginosa [2]
[H]/N=C(\N/C(=N/[H])NCCCCCCNC(=N)NC(=N)Nc1ccc(Cl)cc1)Nc1ccc(Cl)cc1 [chlorhexidine]	< 0.24%		
Oc1cc(Cl)ccc1Oc1ccc(Cl)cc1Cl [triclosan, 2,4,4-trichloro-2-hydroxy-diphenylether]		0.24%	relatively ineffective
